ChEMBL document CHEMBL5344474, “Molecular editing of NSC-666719 enabling discovery of benzodithiazinedioxide-guanidines as anticancer agents” (RSC Med Chem, 2024)

Legend:
[1] = Selectivity index, ratio of IC50 for HEK293 cells to IC50 for human HCT-116 cells; conditions: HEK293 cells versus HCT-116 cells
HCT-116 = assay: Antiproliferative activity against human HCT-116 cells incubated for 72 hrs by MTT assay; conditions: HCT-116, 72 h
SCC-9 = assay: Antiproliferative activity against human SCC-9 cells incubated for 72 hrs by MTT assay; conditions: SCC-9, 72 h
[2] = Selectivity index, ratio of IC50 for HEK293 cells to IC50 for human MDA-MB-231 cells; conditions: HEK293 cells versus MDA-MB-231 cells
[3] = Cytotoxicity against HEK293 cells incubated for 72 hrs by MTT assay; conditions: human
MDA-MB-231 = assay: Antiproliferative activity against human MDA-MB-231 cells incubated for 72 hrs by MTT assay; conditions: MDA-MB-231, 72 h
MCF7 [4] = assay: cells; conditions: Homo sapiens, MCF7, 48 h, read-out: Activity
Description: Induction of apoptosis in human MCF7 cells assessed as viable cells at 0.8 uM incubated for 48 hrs by Annexin-V/FITC staining based flow cytometry analysis (Rvb = 99.3 +/- 0.12 %)

MCF7 [5] = assay: Antiproliferative activity against human MCF7 cells incubated for 72 hrs by MTT assay; conditions: MCF7, 72 h
MCF7 [6] = assay: cells; conditions: Homo sapiens, MCF7, 48 h, read-out: Activity; remark: listed apart in the source
Description: Induction of apoptosis in human MCF7 cells assessed as viable cells at 2 uM incubated for 48 hrs by Annexin-V/FITC staining based flow cytometry analysis (Rvb = 99.3 +/- 0.12 %)

[7] = Selectivity index, ratio of IC50 for HEK293 cells to IC50 for human MCF7 cells; conditions: HEK293 cells versus MCF7 cells
MCF7 [8] = assay: cells; conditions: Homo sapiens, MCF7, 48 h, read-out: Activity; remark: listed apart in the source
Description: Induction of apoptosis in human MCF7 cells assessed as viable cells at 0.5 uM incubated for 48 hrs by Annexin-V/FITC staining based flow cytometry analysis (Rvb = 99.3 +/- 0.12 %)

IC50 (HCT-116): 2800 nM | IC50 (MDA-MB-231): 2100 nM | IC50 (MCF7 [5]): 800 nM
Structure (SMILES): Cc1cc2c(cc1Cl)SC(/N=C(/N)Nc1ccnc3cc(Cl)ccc13)=NS2(=O)=O
selectivity ratio [1]: > 65 | IC50 (SCC-9): 1000 nM | selectivity ratio [2]: > 65 | IC50 at 72 h [3]: 65000 nM | viability at 0.8 µM (MCF7 [4]): 27.4% | viability at 2 µM (MCF7 [6]): 14.8% | selectivity ratio [7]: > 65 | viability at 0.5 µM (MCF7 [8]): 64.9%
